One data set has as its system HT-29 cells. Nature of the data set: Anti-proliferative assay, standard CCK-8 method. It counts as cell-based, human. Conditions: mean ± SD of at least three independent experiments, read-out: Proliferative inhibition (IC50, μM) HT-29. The source says: (§1) All reagents and solvents met the criteria of analytical reagents before use. All cancer cell lines (A549, human non-small-cell lung cell line; HT-29, human colonic adenocarcinoma cell line; MCF-7, human breast cancer cell line) were purchased from Stem Cell Bank, Chinese Academy of Sciences. […] ADP-Glo™ kinase assay kits were provided by Promega (Beijing) Biotech Co., Ltd. (Beijing, China). All kinase subtypes were supplied by SignalChem (BC, Canada).
(§2) The designed 4-anilinoquinazoline derivatives were evaluated for their antitumor bioactivities in vitro against three human tumor cell lines (A549, HT-29, and MCF-7) using the standard CCK-8 method. The CCK-8 method is based on WST-8 dye, 2-(2-methoxy-4-nitrophenyl)-3-(4-nitrophenyl)-5-(2,4-disulfophenyl)-2H-tetrazolium. WST-8 can be bio-reduced by dehydrogenases in mitochondria into orange water-soluble formazan products. Briefly, selected cancer cells in the logarithmic growth phase (1 × 10^4) were inoculated in 96-well plates and further cultured in the incubator for 24 h. First, the target compounds were diluted to different concentrations with culture medium with each dilution gradually diluted from the highest concentration solution. Second, the original culture medium was removed after the cells were completely adherent to the wall, and the compounds at various concentrations prepared above were added. In this experiment, a control group and a blank group were set: the former was treated with 0.1% DMSO solution, and the latter was treated with only the culture medium. […] A microplate reader was adopted to record the absorbance at 450 nm, and in this assay, gefitinib, erlotinib, and sorafenib were used as the reference drugs.

The next data set deals with MCF-7 cells. Nature of the data set: Anti-proliferative assay, standard CCK-8 method. It counts as cell-based, human. Conditions: read-out: Proliferative inhibition (IC50, μM) MCF-7.
Text: as §1, §2
In general terms: Tetrazolium dyes change colour on reduction, which living cells bring about.

A further data set has as its system A549 cells. Nature of the data set: Anti-proliferative assay, standard CCK-8 method. To be noted: mean ± SD of at least three independent experiments, read-out: Proliferative inhibition (IC50, μM) A549. It counts as cell-based, human.
Text: as §1, §2

Another data set addresses T1, EGFR (Homo sapiens, UniProt P00533).
T1 construct: 2 μl (50 ng/ml) of EGFR kinase
The experiment in a line: EGFR kinase inhibition, ADP-Glo assay. It counts as biochemical. Conditions: ADP-Glo; mean ± SD of at least two independent experiments; read-out: Enzymatic inhibition IC50 (nM) EGFR. Here is the method: The EGFR kinase inhibition activities of the target compounds were evaluated by the ADP-Glo™ assay. The ADP-Glo™ kinase detection kit is a luminescence kinase detection approach that detects the amount of ADP produced by the kinase reaction. After ADP is converted into ATP, ATP can be used as the substrate of the luciferase-catalyzed reaction to generate an optical signal, which is positively correlated with kinase activity. […] The above-prepared systems were sealed and incubated at room temperature for 2 h, and 5 μl of ADP-GLO was added to terminate the kinase reaction. Then, the culture plate was sealed and incubated in a thermostatic oscillator for 40 min to fully consume the remaining ATP. The luciferase/luciferin reaction was adopted to determine the newly generated ATP level.
A general note: In ADP-Glo the light output rises with the ADP produced.

The subject of data set [1] is A549, HT-29, and MCF-7 cells. Nature of the data set: Anti-proliferative assay, CCK-8, summaries over all three cell lines. To be noted: Homo sapiens, span over A549, HT-29 and MCF-7 cells, read-out: IC50 against the selected cell lines. It counts as cell-based.
Text: as §1, §2

Where [2] appears, read: mean ± SD of at least three independent experiments.
The mark [3] stands for this setting: Homo sapiens, MCF7, mean ± SD of at least three independent experiments.

Data on 16 compounds can be found in PMC8187944, “Discovery of Potent EGFR Inhibitors With 6-Arylureido-4-anilinoquinazoline Derivatives” (Frontiers in Pharmacology, 2021).

Like-named read-outs stand apart in the source and are kept apart here.

One may read the IC50 as the concentration needed to halve the response being measured. For the compound “1-(4-chloro-3-(trifluoromethyl) phenyl)-3-(4-((2,3-dimethylphenyl) amino)-3,4-dihydroquinazolin-6-yl) urea [Compound 7n]”, the IC50 turned out to be 2.67 ± 1.02 µM in the data set on HT-29 cells, 3.11 ± 0.3 µM in the data set on MCF-7 cells (setting [2]) and 2.67 ± 0.76 µM in the data set with A549 cells.

Consider “1-(4-chloro-3-(trifluoromethyl) phenyl)-3-(4-((2,3-dimethylphenyl) amino)-3,4-dihydroquinazolin-6-yl) urea [Compound 7t]”, for which the IC50 was 48.3 ± 1.9 µM with HT-29 cells, over 50 µM in the data set with MCF-7 cells (setting [2]), over 50 µM with A549 cells and 728.1 ± 1.65 nM at EGFR.

Broadly, the melting point is the temperature of the solid-liquid transition. Regarding `O=C(Nc1ccccc1)Nc1ccc2ncnc(Nc3cccc(Br)c3)c2c1` [Compound 7a], the melting point was in the range of 250 to 250.9 °C. Moreover, the IC50 in the data set on HT-29 cells (Homo sapiens) is 4.66 ± 0.56 µM. Moreover, the IC50 with MCF-7 cells (setting [3]) was 15.9 ± 2.28 µM. Besides, in the data set with A549 cells (Homo sapiens), the IC50 was found to be 5.81 ± 0.84 µM.

In turn, `O=C(Nc1ccccc1)Nc1ccc2ncnc(Nc3ccc(Br)cc3F)c2c1` [Compound 7c] registered a melting point of 256 to 256.8 °C. The half-maximal inhibitory concentration (IC50) with HT-29 cells (Homo sapiens) is 5.92 ± 1.04 µM. Moreover, the IC50 in the data set on MCF-7 cells (setting [3]) amounted to 8.57 ± 0.27 µM. Also, the IC50 in the data set with A549 cells (Homo sapiens) is 6.16 ± 0.45 µM. In addition, the IC50 on EGFR turned out to be 20.1 ± 2.21 nM.

In turn, `O=C(Nc1ccccc1)Nc1ccc2ncnc(Nc3ccc(F)c(Cl)c3)c2c1` [Compound 7d] showed a melting point of 233 to 233.7 °C. The half-maximal inhibitory concentration (IC50) in the data set on HT-29 cells (Homo sapiens) came to 39.2 ± 2.01 µM. In the data set with MCF-7 cells (setting [3]), the concentration for half-maximal inhibition (IC50) worked out at 44.2 ± 0.97 µM. For the same compound, the IC50 in the data set with A549 cells (Homo sapiens) came out at 38.65 ± 0.21 µM. At EGFR, the IC50 turned out to be 11.8 ± 0.36 nM.

For `O=C(Nc1ccccc1)Nc1ccc2ncnc(Nc3ccc(F)cc3)c2c1` [Compound 7f], the melting point was 252.8 to 253.5 °C. The IC50 in the data set on HT-29 cells (Homo sapiens) came out at 48.3 ± 0.78 µM. Further, in the data set with MCF-7 cells (setting [3]), the IC50 turned out to be 44.3 ± 1.12 µM. Moreover, in the data set on A549 cells (Homo sapiens), the concentration for half-maximal inhibition (IC50) was over 50 µM. Further, at EGFR, the 50% inhibitory concentration (IC50) was 11.7 ± 0.79 nM.

Turning to `Cc1cccc(Nc2ncnc3ccc(NC(=O)Nc4ccccc4)cc23)c1C` [Compound 7h], the melting point was in the range of 242.8 to 243.7 °C. Moreover, in the data set on HT-29 cells (Homo sapiens), the IC50 was over 50 µM. The IC50 in the data set with MCF-7 cells (setting [3]) is over 50 µM. For the same compound, in the data set with A549 cells (Homo sapiens), the IC50 was over 50 µM. Moreover, the 50% inhibitory concentration (IC50) in data set [1] was over 50 µM. For the same compound, on EGFR, the IC50 turned out to be 19.7 ± 1.87 nM.

As to `O=C(Nc1ccc(Cl)c(C(F)(F)F)c1)Nc1ccc2ncnc(Nc3ccc(Br)cc3)c2c1` [Compound 7k], the melting point was in the range of 269.8 to 271.1 °C. Also, the IC50 in the data set with HT-29 cells (Homo sapiens) was 2.3 ± 0.5 µM. In addition, in the data set on MCF-7 cells (setting [3]), the IC50 came to 3.54 ± 0.07 µM. For the same compound, the IC50 with A549 cells (Homo sapiens) stood at 2.79 ± 0.44 µM.

On to `Cc1ccc(NC2NC=Nc3ccc(NC(=O)Nc4ccc(Cl)c(C(F)(F)F)c4)cc32)cc1` (stereo not drawn) [Compound 7m, 1-(4-chloro-3-(trifluoromethyl)phenyl)-3-(4-(p-tolylamino)-3,4-dihydroquina-zolin-6-yl) urea], for which the IC50 in the data set with HT-29 cells is 2.61 ± 1.25 µM; in the data set on MCF-7 cells (setting [2]), 5.53 ± 0.39 µM; in the data set on A549 cells it was 5.6 ± 0.31 µM.

`Cc1ccc(Nc2ncnc3ccc(NC(=O)Nc4ccc(F)cc4)cc23)cc1` [Compound 7o]: the melting point fell in the range of 247.2 to 248.4 °C. Further, the IC50 with HT-29 cells (Homo sapiens) was 7.83 ± 0.97 µM. For the same compound, the IC50 with MCF-7 cells (setting [3]) stood at 33.7 ± 10.1 µM. The IC50 in the data set on A549 cells (Homo sapiens) was 35.3 ± 0.57 µM. Also, the half-inhibitory concentration (IC50) at EGFR was 123.9 ± 1.09 nM.

The compound `COc1ccc(NC(=O)Nc2ccc3ncnc(Nc4cccc(C)c4C)c3c2)cc1` [Compound 7p] displayed a melting point of 241.1 to 242.7 °C. Moreover, in the data set on HT-29 cells (Homo sapiens), the IC50 amounted to 11.1 ± 0.39 µM. Further, the IC50 in the data set with MCF-7 cells (setting [3]) amounted to 40.2 ± 2.13 µM. Also, the IC50 with A549 cells (Homo sapiens) was found to be 9.34 ± 0.73 µM. Moreover, the half-inhibitory concentration (IC50) at EGFR was determined as 58.1 ± 1.99 nM.

For `COc1ccc(NC(=O)Nc2ccc3ncnc(Nc4ccc(Br)cc4)c3c2)cc1` [Compound 7q], the melting point lay within 267.1 to 268.2 °C. Also, in the data set on HT-29 cells (Homo sapiens), the half-maximal inhibitory concentration (IC50) was 36.96 ± 0.17 µM. For the same compound, the IC50 with MCF-7 cells (setting [3]) worked out at 17.9 ± 0.89 µM. The IC50 in the data set on A549 cells (Homo sapiens) turned out to be 5.21 ± 0.3 µM. In addition, the IC50 on EGFR came to 470.4 ± 1.28 nM.

Turning to `COc1ccc(NC(=O)Nc2ccc3ncnc(Nc4ccc(F)cc4)c3c2)cc1` [Compound 7r], the melting point was 250.2 to 251.8 °C. Besides, in the data set on HT-29 cells (Homo sapiens), the IC50 was 48.21 ± 0.23 µM. The IC50 in the data set with MCF-7 cells (setting [3]) came to 46.1 ± 1.98 µM. Besides, in the data set with A549 cells (Homo sapiens), the IC50 is over 50 µM. In addition, the IC50 on EGFR amounted to 59.7 ± 1.31 nM.

With `COc1ccc(NC(=O)Nc2ccc3ncnc(Nc4ccc(C)cc4)c3c2)cc1` [Compound 7s], the melting point lay in the range of 259.5 to 260.1 °C. The IC50 in the data set on HT-29 cells (Homo sapiens) was determined as 46.2 ± 0.57 µM. Besides, the IC50 in the data set on MCF-7 cells (setting [3]) stood at 47.6 ± 0.76 µM. In addition, the half-maximal inhibitory concentration (IC50) with A549 cells (Homo sapiens) is over 50 µM. The IC50 at EGFR is 108 ± 2.64 nM.

For the compound `C#Cc1cccc(Nc2ncnc3cc(OCCOC)c(OCCOC)cc23)c1` [Erlotinib, erlotinib, reference compound], the IC50 in the data set with HT-29 cells (Homo sapiens) is 22.8 ± 1.12 µM; with MCF-7 cells (setting [3]), 11.4 ± 0.43 µM; in the data set with A549 cells (Homo sapiens), 23.2 ± 0.51 µM; in data set [1] it was 1.84 to 23.2 µM.

For the compound `CNC(=O)c1cc(Oc2ccc(NC(=O)Nc3ccc(Cl)c(C(F)(F)F)c3)cc2)ccn1` [Sorafenib, sorafenib, reference compound], the IC50 in the data set on HT-29 cells (Homo sapiens) is 2.27 ± 0.43 µM; in the data set with MCF-7 cells (setting [3]) it was 3.47 ± 0.39 µM; with A549 cells (Homo sapiens), 1.84 ± 0.17 µM; in data set [1] it was 1.84 to 23.2 µM.
